# Non-standard residues stand in square brackets, D forms with d. No end group written: not given here. β3hY = N[C@H](CC(=O)O)Cc1ccc(O)cc1; β3hK = NCCCC[C@H](N)CC(=O)O; β3hA = C[C@H](N)CC(=O)O
# Experiments:
# [1] = system: relapsing remitting EAE in SJL/J mice; assay: Prophylactic (pre-treatment) efficacy in relapsing remitting EAE; format: in vivo; conditions: pre-treatment 0.5 mg in IFA; FIG. 2i
# Description: (§1) To induce RR EAE or chronic progressive EAE, SJL/J or C57BL6/J mice were immunized subcutaneously with 0.2 mg of MBP (85-109) or 0.1 mg MOG (35-55) emulsified in CFA and 200 ng of pertussis toxin was injected intraperitoneally on day 0 and day 2 so as to permeablize the blood brain barrier. All the animals in various experimental groups were scored daily for clinical disability on a scale of 0-6 where 0=no neurological symptoms, 1=limp tail, 2=weakness of hind limbs or ataxia, 3=incomplete paralysis of hind limbs, 4=complete paralysis of hind limbs, 5=complete paralysis of all four limbs, 6=dead. Diseased animals were provided easy access to food and water.
# [2] = system: SJL/J mice exhibiting MBP (85-109) induced relapsing remitting form of EAE; assay: Therapeutic activity in MBP (85-109) induced relapsing remitting EAE, treatment from day 11; format: in vivo; conditions: for Therapeutic activity in comparison to GA (Therapeutic activity (Analogs) − Therapeutic activity GA) / Therapeutic activity in comparison to J5 (Therapeutic activity (Analogs) − Therapeutic activity (J5)) / Therapeutic activity = % reduction in cumulative clinical disability score: SJL/J mice, RR EAE; for Therapeutic activity in comparison to GA (Therapeutic activity (Analogs) − Therapeutic activity GA) / Therapeutic activity in comparison to J5 (Therapeutic activity (Analogs) − Therapeutic activity (J5)): 0.1 mg daily for two weeks; for Therapeutic activity = % reduction in cumulative clinical disability score: synthetic peptides, 0.1 mg daily for two weeks from day 11 post-immunization
# Description: SJL/J and C57BL6/J mice procured from Jackson's laboratory (Bar Harbor, Me.) were maintained under standard housing conditions in the central animal facility at NII as per institutional ethical committee guidelines. 8-10 week old female SJL/J mice were used throughout the study.
# as §1
# GA, J91, J92, S101, S102, S103 for two weeks and scored for clinical disability.
# HLA DR2 = target: T1, HLA DR2 (Homo sapiens, UniProt P01903+P01911); assay: Inhibition of binding of biotinylated MBP (85-99) to HLA DR2; conditions: 5 μM competitor, 0.5 μM biotinylated MBP (85-99); FIG. 3
# T1 construct: endogenous in cells; host or cells: MGAR lymphoblastoid B cell line (IHWG, Seattle)
# Description: HLA DR2 molecules were affinity purified from MGAR (a lymphoblastoid B cell line expressing HLA DR2 obtained from IHWG, Seattle, Wash. —USA) cell line. Cells were cultured in RPMI 1640 supplemented with 10% FBS, 2 mM glutamine, 50 U/ml penicillin and 50 μg/ml streptomycin. The anti-DR antibody L243 was purchased from Santacruz Biotech.
# HLA DR2 was purified to a purity of 90-95% by immunoaffinity purification. Briefly, MGAR cells were detergent solubilized to prepare the membrane fraction which was passed sequentially through sepharose CL-6B, normal mouse serum-affinity-gel, Protein A sepharose CL-4B and L243-protein A sepharose-CL-4B at a flow rate of around 10-11 ml/h. The final eluate was dialyzed against 0.1% deoxycholate, 10 mM Tris-HCl (pH 8.0) and concentrated using centricon concentrators from Millipore. Protein concentration was determined using bicinchoninic acid (BCA) assay (Sigma). The obtained protein fraction was also run on SDS-PAGE gel to confirm identity and purity.
# Copolymers (GA, J91, J92, S101 to S109) and peptide analogs (S1-S82) at a final concentration of 5 μM were coincubated with biotinylated MBP (85-99; purchased from Bioconcept Labs Pvt. Ltd. India) at a final concentration of 0.5 μM and HLA DR2 (0.5 μg/sample) molecules for 40 h at 37° C. and transferred to a 96-well microtiter assay plates coated with 1 μg/well purified L243 mAb. Coating of microtiter plates was performed with 100 μl of L243 mAb in PBS for 18 h at 4° C. […] 3,3′,5,5′-tetramethylbenzidine (TMB, substrate for […]) was added to each well and absorbance at 410 nm was recorded on an ELISA reader (TECAN infinite M200).
# Ability of analogs viz. […] Most of the analogs designed herein viz.
# β^3-homo amino acid containing copolymers viz. […] Copolymers containing β^3-homo amino acids viz.
# spleenocytes = assay: Th1/Th2 cytokine levels in culture supernates of spleenocytes from treatment groups; format: cell-based, mice; conditions: spleenocytes at the end of four weeks; FIG. 4
# Description: Levels of various cytokines in culture supernates were determined by sandwich ELISA using multiplex cytokine ELISA kit (Millipore). Briefly, 100 μl of cell culture supernates from various groups were incubated with antibody (against various pro and anti-inflammatory cytokines) coated fluorescent polystyrene beads in 96 well microtiter plates, stained with PE-conjugated secondary antibody, provided in the kit and samples were acquired on […] (Bio-rad).
# Effect of a group of analogs comprising analogs viz.
# Effect of β^3-homo amino acid containing copolymers viz S101, S102 and S103 on Th1/Th2 cytokine balance was studied in comparison to other copolymers viz. GA, J91, J92, for which culture supernates of spleenocytes grown in the presence of various copolymers, were assayed using ELISA to determine the levels of various cytokines. […] Most noteworthy change was in the levels of IL-2 in the S101, S102 and S103 treated groups, where the levels were brought down by 60-70%.
# T1 sequence (P01903 26-254): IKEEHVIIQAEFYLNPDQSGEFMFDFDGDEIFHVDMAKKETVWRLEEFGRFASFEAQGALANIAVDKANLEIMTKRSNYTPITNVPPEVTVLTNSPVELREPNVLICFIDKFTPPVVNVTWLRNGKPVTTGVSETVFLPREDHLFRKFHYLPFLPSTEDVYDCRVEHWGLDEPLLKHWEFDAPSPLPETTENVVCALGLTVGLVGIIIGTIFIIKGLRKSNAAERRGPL
# T1 sequence (P01911 30-266): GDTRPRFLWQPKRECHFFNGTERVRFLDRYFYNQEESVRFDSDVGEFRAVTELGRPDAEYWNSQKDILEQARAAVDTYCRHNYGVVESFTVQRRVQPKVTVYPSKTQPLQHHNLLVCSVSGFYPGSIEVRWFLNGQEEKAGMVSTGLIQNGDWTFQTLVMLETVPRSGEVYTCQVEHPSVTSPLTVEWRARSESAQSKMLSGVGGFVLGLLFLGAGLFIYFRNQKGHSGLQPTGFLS
substance,measurement,setting,value
Eβ^3Kβ^3Pβ^3Kβ^3Vβ^3Eβ^3Aβ^3Yβ^3Kβ^3Aβ^3Aβ^3Aβ^3Aβ^3Pβ^3Aβ^3 [Analog S15],delay of clinical onset of disease,[1],~3 days
same,Therapeutic activity in comparison to GA (Therapeutic activity (Analogs) − Therapeutic activity GA),[2],30.91%
same,Therapeutic activity in comparison to J5 (Therapeutic activity (Analogs) − Therapeutic activity (J5)),[2],26.95%
same,efficacy relative to GA,[2]; both treatment and pre-treatment scenarios,approximately two times better
same,Therapeutic activity = % reduction in cumulative clinical disability score,[2],62.25%
FPFNVPTNIVKVERH (Peptide analog) [scrambled MBP (85-99)],inhibition of binding of biotinylated MBP (85-99) to HLA DR2,HLA DR2,~15%
EKPKVEAβ^3Yβ^3Kβ^3Aβ^3Aβ^3Aβ^3Aβ^3Pβ^3Aβ^3 [Analog S9],Therapeutic activity in comparison to GA (Therapeutic activity (Analogs) − Therapeutic activity GA),[2],23.74%
same,Therapeutic activity in comparison to J5 (Therapeutic activity (Analogs) − Therapeutic activity (J5)),[2],19.79%
same,Therapeutic activity = % reduction in cumulative clinical disability score,[2],55.08%
Kβ^3Vβ^3Eβ^3AβYβ^3Kβ^3AβAβAβ^3Aβ^3 [Analog S82],Therapeutic activity in comparison to GA (Therapeutic activity (Analogs) − Therapeutic activity GA),[2],31.87%
same,Therapeutic activity in comparison to J5 (Therapeutic activity (Analogs) − Therapeutic activity (J5)),[2],27.91%
same,Therapeutic activity = % reduction in cumulative clinical disability score,[2],63.21%
KVβ^3Eβ^3Aβ^3Yβ^3Kβ^3Aβ^3Aβ^3Aβ^3Aβ^3 [Analog S25],Therapeutic activity in comparison to GA (Therapeutic activity (Analogs) − Therapeutic activity GA),[2],22.25%
same,Therapeutic activity in comparison to J5 (Therapeutic activity (Analogs) − Therapeutic activity (J5)),[2],18.29%
same,Therapeutic activity = % reduction in cumulative clinical disability score,[2],53.58%
KVEAYβ^3Kβ^3 (KVEA[β3hY][β3hK]) [Analog S29],Therapeutic activity in comparison to GA (Therapeutic activity (Analogs) − Therapeutic activity GA),[2],−1.07%
same,Therapeutic activity in comparison to J5 (Therapeutic activity (Analogs) − Therapeutic activity (J5)),[2],−5.027%
same,Therapeutic activity = % reduction in cumulative clinical disability score,[2],30.27%
KVEAβ^3Yβ^3Kβ^3Aβ^3Aβ^3Aβ^3Aβ^3 [Analog S23],Therapeutic activity in comparison to GA (Therapeutic activity (Analogs) − Therapeutic activity GA),[2],22.14%
same,Therapeutic activity in comparison to J5 (Therapeutic activity (Analogs) − Therapeutic activity (J5)),[2],18.18%
same,Therapeutic activity = % reduction in cumulative clinical disability score,[2],53.48%
KVEAYKβ [Analog S66],Therapeutic activity in comparison to GA (Therapeutic activity (Analogs) − Therapeutic activity GA),[2],−9.412%
same,Therapeutic activity in comparison to J5 (Therapeutic activity (Analogs) − Therapeutic activity (J5)),[2],−13.369%
same,Therapeutic activity = % reduction in cumulative clinical disability score,[2],21.93%
Kβ^3Vβ^3EAYβ^3Kβ^3Aβ^3Aβ^3Aβ^3Aβ^3 [Analog S26],Therapeutic activity in comparison to GA (Therapeutic activity (Analogs) − Therapeutic activity GA),[2],27.91%
same,Therapeutic activity in comparison to J5 (Therapeutic activity (Analogs) − Therapeutic activity (J5)),[2],23.96%
same,Therapeutic activity = % reduction in cumulative clinical disability score,[2],59.25%
EKPKVβEβAβYβKβAβAβAβAβPAβ [Analog S50],Therapeutic activity in comparison to GA (Therapeutic activity (Analogs) − Therapeutic activity GA),[2],−1.925%
same,Therapeutic activity in comparison to J5 (Therapeutic activity (Analogs) − Therapeutic activity (J5)),[2],−5.882%
same,Therapeutic activity = % reduction in cumulative clinical disability score,[2],29.41%
VEAYKβ^3 (VEAY[β3hK]) [Analog S35],Therapeutic activity in comparison to GA (Therapeutic activity (Analogs) − Therapeutic activity GA),[2],−6.952%
same,Therapeutic activity in comparison to J5 (Therapeutic activity (Analogs) − Therapeutic activity (J5)),[2],−10.9091%
same,Therapeutic activity = % reduction in cumulative clinical disability score,[2],24.39%
KVEAYKβAβAβAβAβ [Analog S59],Therapeutic activity in comparison to GA (Therapeutic activity (Analogs) − Therapeutic activity GA),[2],12.94%
same,Therapeutic activity in comparison to J5 (Therapeutic activity (Analogs) − Therapeutic activity (J5)),[2],8.984%
same,Therapeutic activity = % reduction in cumulative clinical disability score,[2],44.28%
VβEAYβKβ [Analog S78],Therapeutic activity in comparison to GA (Therapeutic activity (Analogs) − Therapeutic activity GA),[2],−11.9037%
same,Therapeutic activity in comparison to J5 (Therapeutic activity (Analogs) − Therapeutic activity (J5)),[2],−15.861%
same,Therapeutic activity = % reduction in cumulative clinical disability score,[2],19.43%
"VEAYK (Peptide analog) [Analog J5c, reference compound]",Therapeutic activity in comparison to GA (Therapeutic activity (Analogs) − Therapeutic activity GA),[2],−9.947%
same,Therapeutic activity in comparison to J5 (Therapeutic activity (Analogs) − Therapeutic activity (J5)),[2],−13.9037%
same,Therapeutic activity = % reduction in cumulative clinical disability score,[2],21.39%
KVEAYKAAβAβAβ [Analog S57],Therapeutic activity in comparison to GA (Therapeutic activity (Analogs) − Therapeutic activity GA),[2],8.021%
same,Therapeutic activity in comparison to J5 (Therapeutic activity (Analogs) − Therapeutic activity (J5)),[2],4.064%
same,Therapeutic activity = % reduction in cumulative clinical disability score,[2],39.36%
EβKβPKβVβEAYβKβAβAβAβAβPAβ [Analog S54],Therapeutic activity in comparison to GA (Therapeutic activity (Analogs) − Therapeutic activity GA),[2],−1.6E−06%
same,Therapeutic activity in comparison to J5 (Therapeutic activity (Analogs) − Therapeutic activity (J5)),[2],−3.957%
same,Therapeutic activity = % reduction in cumulative clinical disability score,[2],31.3369%
Kβ^3Vβ^3EAYβ^3Kβ^3 [Analog S34],Therapeutic activity in comparison to GA (Therapeutic activity (Analogs) − Therapeutic activity GA),[2],25.03%
same,Therapeutic activity in comparison to J5 (Therapeutic activity (Analogs) − Therapeutic activity (J5)),[2],21.07%
same,Therapeutic activity = % reduction in cumulative clinical disability score,[2],56.36%
KVEAYKAAAβ^3Aβ^3 (KVEAYKAA[β3hA][β3hA]) [Analog S18],Therapeutic activity in comparison to GA (Therapeutic activity (Analogs) − Therapeutic activity GA),[2],−3.957%
same,Therapeutic activity in comparison to J5 (Therapeutic activity (Analogs) − Therapeutic activity (J5)),[2],−7.914%
same,Therapeutic activity = % reduction in cumulative clinical disability score,[2],27.38%
KVEβ^3Aβ^3Yβ^3Kβ^3 [Analog S31],Therapeutic activity in comparison to GA (Therapeutic activity (Analogs) − Therapeutic activity GA),[2],−1.818%
same,Therapeutic activity in comparison to J5 (Therapeutic activity (Analogs) − Therapeutic activity (J5)),[2],−5.7754%
same,Therapeutic activity = % reduction in cumulative clinical disability score,[2],29.52%
"EKPKVEAYKAAAAPA [Analog J5, reference compound]",effect on clinical onset of disease,[1],no effect on clinical onset of disease
same,Therapeutic activity in comparison to GA (Therapeutic activity (Analogs) − Therapeutic activity GA),[2],3.957%
same,Therapeutic activity in comparison to J5 (Therapeutic activity (Analogs) − Therapeutic activity (J5)),[2],0%
same,Therapeutic activity = % reduction in cumulative clinical disability score,[2],35.29%
same,change in IL-4 levels,spleenocytes,only a marginal increase
KVβEβAβYβKβAβAβAβAβ [Analog S63],Therapeutic activity in comparison to GA (Therapeutic activity (Analogs) − Therapeutic activity GA),[2],−9.305%
same,Therapeutic activity in comparison to J5 (Therapeutic activity (Analogs) − Therapeutic activity (J5)),[2],−13.262%
same,Therapeutic activity = % reduction in cumulative clinical disability score,[2],22.03%
EKPKVEAYKAAAAβ^3Pβ^3Aβ^3 [Analog S3],Therapeutic activity in comparison to GA (Therapeutic activity (Analogs) − Therapeutic activity GA),[2],5.027%
same,Therapeutic activity in comparison to J5 (Therapeutic activity (Analogs) − Therapeutic activity (J5)),[2],1.07%
same,Therapeutic activity = % reduction in cumulative clinical disability score,[2],36.36%
EKPKVEAYKAAβ^3Aβ^3Aβ^3Pβ^3Aβ^3 [Analog S5],Therapeutic activity in comparison to GA (Therapeutic activity (Analogs) − Therapeutic activity GA),[2],11.02%
same,Therapeutic activity in comparison to J5 (Therapeutic activity (Analogs) − Therapeutic activity (J5)),[2],7.059%
same,Therapeutic activity = % reduction in cumulative clinical disability score,[2],42.35%

# From patent US20140348861A1, “SYNTHETIC PEPTIDES AND RANDOM COPOLYMERS FOR THE TREATMENT OF AUTOIMMUNE DISORDERS” (NATIONAL INSTITUTE OF IMMUNOLOGY, priority 2011, published 2014)
